Holding throughout (format): in vivo
Assay [1] concerns Capsella bursa-pastoris. Briefly: Post-emergence foliage spray, pot culture, fresh weight inhibition (Tables 151-206; 20 days). Conditions: Capsella bursa-pastoris, 480 h, read-out: Control effect (%) of A applied alone in corresponding dose. As for the experimental part: (§1) The above weeds were cultivated by a pot culture method. […] Full and uniform weed seeds were selected, soaked in warm water at 25° C. for 6 hours, and germinated in a 28° C. biochemical incubator (darkness). The weed seeds that had just germinatedwere evenly placed on the surface of the soil and then covered with 0.5-1 cm soil according to the sizes of seeds.
(§2) The technical materials were all dissolved in acetone, and diluted with an aqueous solution containing 0.1% emulsifier Tween-80. The dilution is performed as required.
(§3) A ratio of the active ingredient A to the active ingredient B and amounts thereof in each group depends on the characteristics and toxicity of the two agents, as well as the main application purpose of a corresponding formulation. Based on the pre-tests in this study, the dosage of the active ingredient A and B applied alone and in combination were shown in the tables. Water containing the solvent and emulsifier same with the above groups but free of the agents was used as a blank control.
In the stage of weeds with 3˜4 leaves, the weeds were thinned out to maintain 15 weeds per pot and 45 weeds for each treatment, then continued to be cultured to 4˜5 leaves stage of grassy weeds, 5˜6 leaves stage of broadleaf weeds, and treated.
(§4) The well-cultured weeds were evenly placed on a platform with an area of 0.5 m^2, and a solution of agents was sprayed on the stems and leaves thereof by the 3WP-2000-type walking spray tower at a dosage of 450 kg/ha and at a spray pressure of 0.3 MPa. After all the solution was sprayed, the valve was closed. After 30 seconds, the door of the spray tower was opened, and the nutritional bowl was taken out. Then the valve was opened, and the spray tube was cleaned by spraying 50 ml of water.
(§5) A pot-culture method was employed. For the cultivation of weeds, please refer to the Section 1.1), and “Pesticide guidelines for laboratory bioactivity tests—herbicides”. As to a method for applying agents, please refer to the section 2.3.2), that is, a foliage treatment was employed. After the treatment, the weeds were routinely cultured in a greenhouse.
(§6) A method for investigating absolute number was employed, wherein whole seedlings of survival weeds were cut off with a blade along the soil surface, and the fresh weight of the weeds was weighed with an analytical balance. For dead weeds, the fresh weight thereof was zero.
(§7) Wherein, in the formula, X represented the fresh weight inhibition rate of the active ingredient A in a dosage of P, and Y represented the fresh weight inhibition rate of the active ingredient B in a dosage of Q.

Assay [2] has as its system Digitaria sanguinalis. The description is as above. Conditions: Digitaria sanguinalis, 480 h, read-out: Control effect (%) of A applied alone in corresponding dose. How it is done:
Table 151-206: Digitaria sanguinalis, Amaranthus retroflexus, Conyza Canadensis, Capsella bursa-pastoris, Eleusine indica were collected in Huangdao of Shandong Province, Sinapis arvensis were collected in Sixian of Anhui Province, Alopecurus japonicus were collected in Tianchang of Anhui Province, Veronica didyma were collected in Siyang of Jiangsu Province.
as §1
The culture was carried out in a controllable sunlight greenhouse at 20 to 30° C., in natural light, and relative humidity of 57% to 72%.
as §2, §3
Table 1-48, 51-98, 101-148, 151-206: […] per treatment, that is, a total of 60 weeds were treated in one treatment.
Table 151-206: The agents were used for only once in the experiment. In the stage of weeds with 3˜4 leaves, the weeds were thinned out to maintain 15 weeds per pot and 45 weeds for each treatment, then continued to be cultured to 4˜5 leaves stage of grassy weeds, 5˜6 leaves stage of broadleaf weeds, and treated.
as §4, §5, §6
Table 151-206: The investigation was performed after 20 days of the treatment for only once.
Theoretical fresh weight inhibition rate of a combination of two active ingredients in each group was calculated by the Gowing method (E0=X+Y−X*Y/100), and then compared with an actually measured inhibition rate (E), thereby effect of the combination (hereafter referred to as combined effect) on weeds was evaluated: the value of E-E0, which was greater than 10%, corresponded to a synergistic effect, the value of E-E0, which was less than −10%, corresponded to an antagonistic effect, and the value of E-E0, which was from −10% to 10%, corresponded to an additional effect.

For assay [3], the system named is Echinochloa caudate. Briefly: Post-emergence foliage spray, pot culture, fresh weight inhibition (Tables 1-48, 51-98, 101-148; 24 days). As for the experimental part: as §1, §2, §3
(§8) In the stage of weeds with 3˜4 leaves, the weeds were thinned out to maintain 15 weeds per pot and 45 weeds for each treatment, then continued to be cultured to 5˜6 leaves stage of grassy weeds, 6˜7 leaves stage of broadleaf weeds, and treated.
as §4, §5, §6, §7

Assay [4] has as its system Echinochloa oryzoides. Described as above. How it is done: as §1, §2, §3, §8, §4, §5, §6, §7
[5] abbreviates: A alone 75 g a.i./ha, 20 days after treatment.
The mark [6] stands for this setting: A alone 150 g a.i./ha, 20 days after treatment.
Setting [7] is: Echinochloa, 576 h, read-out: Control effect (%) of B applied alone in corresponding dose.
Setting [8] is: Echinochloa oryzoides, 576 h, read-out: Control effect (%) of B applied alone in corresponding dose.

SMILES strings stand for the structures. Read-outs that look alike come from different tables or passages of the source.

For `Cc1c(F)c(F)c(COC(=O)[C@@H](C)Oc2nc(F)c(Cl)c(N)c2Cl)c(F)c1F` [Compound A213], the pest or weed control at 75 g/ha worked out at 14.6% in assay [1] (setting [5]) and 14.9% in assay [2] (setting [5]). Further, the pest or weed control at 150 g/ha in assay [1] (setting [6]) came out at 26.8%; in assay [2] (setting [6]), 31.2%.
As to `C[C@@H](Oc1ncc(Br)c(N)c1Br)C(=O)O` [Compound A212], the pest or weed control at 75 g/ha in assay [1] (A 75 g a.i./ha, 20 days) was found to be 8.6%; in assay [2] (A 75 g a.i./ha, 20 days), 11.5%. In addition, the pest or weed control at 150 g/ha worked out at 14.5% in assay [1] (A 150 g a.i./ha, 20 days) and 24.6% in assay [2] (A 150 g a.i./ha, 20 days).
With `COC(=O)[C@H](Oc1nc(F)c(Cl)c(N)c1Cl)c1ccccc1` [Compound A171], the pest or weed control at 75 g/ha amounted to 12.2% in assay [1] (A 75 g a.i./ha, 20 days) and 19.2% in assay [2] (A 75 g a.i./ha, 20 days). Besides, the pest or weed control at 150 g/ha in assay [1] (A 150 g a.i./ha, 20 days) stood at 28.9%; in assay [2] (A 150 g a.i./ha, 20 days), 31.9%.
For `CCCCOCCOC(=O)[C@@H](C)Oc1nc(F)c(Cl)c(N)c1Cl` [Compound A214], the figures for the pest or weed control at 75 g/ha in assay [1] (setting [5]) and in assay [2] (setting [5]) were 24.8% and 21.9%, respectively. Besides, the pest or weed control at 150 g/ha came to 46.2% in assay [1] (setting [6]) and 44.6% in assay [2] (setting [6]).
As for `CCCCCCCCCCCOC(=O)[C@@H](C)Oc1nc(F)c(Cl)c(N)c1Cl` [Compound A94], the pest or weed control at 75 g/ha amounted to 6.2% in assay [1] (A 75 g a.i./ha, 20 days) and 23.4% in assay [2] (A 75 g a.i./ha, 20 days). The pest or weed control at 150 g/ha was found to be 12.6% in assay [1] (A 150 g a.i./ha, 20 days) and 51.7% in assay [2] (A 150 g a.i./ha, 20 days).
For `C[C@@H](Oc1nc(F)c(Cl)c(N)c1Cl)C(=O)OCc1ccccc1` [Compound A141], in that order: 7.8%, 27.7%, 16.4% and 55.8%.
As for `CC[C@@H](Oc1nc(F)c(Cl)c(N)c1Cl)C(=O)OC` [Compound A172], the pest or weed control at 75 g/ha in assay [1] (A 75 g a.i./ha, 20 days) came out at 22.4%; in assay [2] (A 75 g a.i./ha, 20 days) it was 21.2%. For the same molecule, the pest or weed control at 150 g/ha in assay [1] (A 150 g a.i./ha, 20 days) is 47.9%; in assay [2] (A 150 g a.i./ha, 20 days), 38.9%.
With `CS(=O)(=O)c1cc(C(F)(F)F)ccc1C(=O)c1cnoc1C1CC1` [isoxaflutole], the pest or weed control at 7.5 g/ha was found to be 2.1% in assay [3] (Echinochloa, 576 h, Table 85, 7.5 g a.i./ha, read-out: Control effect (%) of B applied alone in corresponding dose) and 8.1% in assay [4] (Echinochloa oryzoides, 576 h, B 7.5 g a.i./ha, read-out: Control effect (%) of B applied alone in corresponding dose). Besides, the pest or weed control at 15 g/ha in assay [3] (Echinochloa, 576 h, Table 85, 15 g a.i./ha, read-out: Control effect (%) of B applied alone in corresponding dose) was 14.3%; in assay [4] (Echinochloa oryzoides, 576 h, B 15 g a.i./ha, read-out: Control effect (%) of B applied alone in corresponding dose), 19.6%. In addition, the pest or weed control at 30 g/ha is 47.9% in assay [3] (Echinochloa, 576 h, Table 85, 30 g a.i./ha, read-out: Control effect (%) of B applied alone in corresponding dose) and 50.6% in assay [4] (Echinochloa oryzoides, 576 h, B 30 g a.i./ha, read-out: Control effect (%) of B applied alone in corresponding dose). For the same molecule, the pest or weed control at 60 g/ha was 63.6% in assay [3] (Echinochloa, 576 h, Table 85, 60 g a.i./ha, read-out: Control effect (%) of B applied alone in corresponding dose) and 65.5% in assay [4] (Echinochloa oryzoides, 576 h, B 60 g a.i./ha, read-out: Control effect (%) of B applied alone in corresponding dose).
Regarding `COC(=O)[C@@H](C)Oc1ncc(Cl)c(N)c1Cl` [Compound A173], the pest or weed control at 75 g/ha in assay [1] (A 75 g a.i./ha, 20 days) amounted to 24.8%; in assay [2] (A 75 g a.i./ha, 20 days), 38.2%. The pest or weed control at 150 g/ha in assay [1] (A 150 g a.i./ha, 20 days) is 52.4%; in assay [2] (A 150 g a.i./ha, 20 days) it was 73.6%.
As to `Cc1cc(C)n(Cc2c(S(C)(=O)=O)ccc(C(=O)c3c(C)nn(C)c3OC(=O)c3cn(C)nc3C)c2Cl)n1` [tripyrasulfone], the “Control effect (%) of B applied alone in corresponding dose” value (from here on “Control effect (%) of B applied alone”) stood at 4.6% in assay [3] (Table 80, 18.75 g a.i./ha); 16.0% in assay [3] (Table 80, 37.5 g a.i./ha); 42.6% in assay [3] (Table 80, 75 g a.i./ha); 74.3% in assay [3] (Table 80, 150 g a.i./ha); 8.9% in assay [4] (B 18.75 g a.i./ha); 18.0% in assay [4] (B 37.5 g a.i./ha). Further, the “Control effect (%) of B applied alone” value in assay [4] (B 75 g a.i./ha) is recorded as 44.6%; in assay [4] (B 150 g a.i./ha) it was 75.2%.
On to `CS(=O)(=O)c1ccc(C(=O)C2C(=O)CCCC2=O)c(Cl)c1COCC1CCCO1` (stereo not drawn) [tefuryltrione], for which the “Control effect (%) of B applied alone” value came out at 6.8% in assay [3] (Table 81, 7.5 g a.i./ha); 13.1% in assay [3] (Table 81, 15 g a.i./ha); 41.3% in assay [3] (Table 81, 30 g a.i./ha); 65.4% in assay [3] (Table 81, 60 g a.i./ha); 8.9% in assay [4] (B 7.5 g a.i./ha); 18.8% in assay [4] (B 15 g a.i./ha). Moreover, the “Control effect (%) of B applied alone” value in assay [4] (B 30 g a.i./ha) is 46.1%; in assay [4] (B 60 g a.i./ha), 69.3%.
`CC(C)=NOC(=O)[C@@H](C)Oc1nc(F)c(Cl)c(N)c1Cl` [Compound A130]: the pest or weed control at 75 g/ha in assay [1] (setting [5]) is 5.4%; in assay [2] (setting [5]), 16.7%. Moreover, the pest or weed control at 150 g/ha stood at 13.2% in assay [1] (setting [6]) and 36.8% in assay [2] (setting [6]).
For `CCCCOC(=O)[C@@H](C)Oc1ccc(Oc2ccc(C#N)cc2F)cc1` [cyhalofop-butyl], in assay [3] (setting [7]), the pest or weed control at 9.375 g/ha is 5.9%, the pest or weed control at 18.75 g/ha was 11.4%, the pest or weed control at 37.5 g/ha is 29.9% and the pest or weed control at 75 g/ha came to 69.6%. Also, in assay [4] (setting [8]), the pest or weed control at 9.375 g/ha was 5.5%, the pest or weed control at 18.75 g/ha stood at 15%, the pest or weed control at 37.5 g/ha is 32.1% and the pest or weed control at 75 g/ha was found to be 63.5%.
In the case of `C[C@@H](Oc1nc(F)c(Cl)c(N)c1Cl)C(=O)SCc1ccco1` [Compound A211], the pest or weed control at 75 g/ha in assay [1] (A 75 g a.i./ha, 20 days) was 5.8%; in assay [2] (A 75 g a.i./ha, 20 days), 31.3%. Also, the pest or weed control at 150 g/ha in assay [1] (A 150 g a.i./ha, 20 days) turned out to be 14.6%; in assay [2] (A 150 g a.i./ha, 20 days), 68.3%.

Values taken from patent US20220264878A1, “HERBICIDAL COMPOSITION CONTAINING R-TYPE PYRIDYLOXY CARBOXYLIC ACID DERIVATIVE AND USE THEREOF” (Qingdao Kingagroot Chemical Compound Co., Ltd., priority 2019, published 2022).
